The values that follow come from patent publication US20240376090A1, “ISOXAZOLE DERIVATIVES AS MODULATORS OF THE 5-HT2A SEROTONIN RECEPTOR USEFUL FOR THE TREATMENT OF DISORDERED RELATED THERETO” (Arena Pharmaceuticals, Inc., priority 2020, published 2024).

Some results are limits rather than exact numbers.

For experiment [1], the target named is T1, 5-HT2A receptor (Homo sapiens (Human), UniProt P28223). The experiment is described as follows: HTRF IP-One antagonist assay, 5-HT2A. The experiment is classed as cell-based. Conditions: HEK293 cells stably expressing recombinant human receptor; IP accumulation with 80 nM 5-HT. On the procedure:
(§1) HEK293 cells stably expressing 5-HT2 receptors were generated using standard procedures. Cells were dilution cloned and clonal cell lines stably expressing the receptors at low levels were selected for pharmacology studies. In radioligand binding studies using a variety of radiolabeled probes, receptor densities in the 2A, 2B and 2C cell lines were estimated to be 50-70, 150-200, and 10-20 fmol/mg, respectively.
(§2) Inositol phosphate accumulation assays were performed using the HTRF IP-One assay system developed by Cisbio and generally followed the manufacturer's instructions. Briefly, HEK293 cells stably expressing recombinant human receptors were harvested and resuspended in phenol-red free OptiMEM (ThermoFisher), plated into 384-well assay plates (Perkin Elmer, ProxiPlate-Plus® Cat #6008280) at 10,000 cells/well in a volume of 10 μL/well, and incubated overnight at 37° C., 5% CO2. Test compounds were solubilized and serially diluted in DMSO, and then diluted into Assay Buffer (Tris HCl 20 mM, NaCl 150 mM, LiCl 40 mM, pargyline 25 μM, pH 8) containing 80 nM 5-HT. Test compounds were added to the cells (4 μL/well addition, maximal final assay concentration typically 10 μM) and plates, incubated for 2 hrs at 37° C./5% CO2 and then removed from the incubator and allowed to cool to room temperature for 30 minutes prior to addition of IP-One detection reagents. IP-One detection reagents (6 μL/well) were added and plates incubated for 1 hr at room temperature before reading on an HTRF compatible reader such as a Perkin Elmer EnVision® or BMG PheraStar®. Dose-response experiments utilized 10-point curves, typically starting at 10 μM, with 5-fold serial dilutions. Experiments were performed with triplicate data points and independent replicate experiments were performed to ensure data consistency.

The target in experiment [2] is T1, 5-HT2A receptor. Nature of the experiment: Radioligand binding assay ([3H]5-HT competition), 5-HT2A. To be noted: [3H]5-HT radioligand, membranes of HEK293 cells expressing recombinant 5-HT2A; Ki from IC50 by Cheng-Prusoff; read-out: 5-HT2A serotonin binding Ki value.
For experiment [3], the target named is 5-HT2C receptor (Homo sapiens (Human), UniProt P28335). Nature of the experiment: HTRF IP-One antagonist assay, 5-HT2C. In kind it is cell-based. Conditions: HEK293 cells stably expressing recombinant human receptor; IP accumulation with 80 nM 5-HT. On the procedure: as §1, §2
The target of experiment [4] is 5-HT2B receptor (Homo sapiens (Human), UniProt P41595). Nature of the experiment: HTRF IP-One antagonist assay, 5-HT2B. The experiment is classed as cell-based. Conditions: HEK293 cells stably expressing recombinant human receptor; IP accumulation with 80 nM 5-HT. The method, then:
as §1, §2

T1 sequence (P28223 whole entry): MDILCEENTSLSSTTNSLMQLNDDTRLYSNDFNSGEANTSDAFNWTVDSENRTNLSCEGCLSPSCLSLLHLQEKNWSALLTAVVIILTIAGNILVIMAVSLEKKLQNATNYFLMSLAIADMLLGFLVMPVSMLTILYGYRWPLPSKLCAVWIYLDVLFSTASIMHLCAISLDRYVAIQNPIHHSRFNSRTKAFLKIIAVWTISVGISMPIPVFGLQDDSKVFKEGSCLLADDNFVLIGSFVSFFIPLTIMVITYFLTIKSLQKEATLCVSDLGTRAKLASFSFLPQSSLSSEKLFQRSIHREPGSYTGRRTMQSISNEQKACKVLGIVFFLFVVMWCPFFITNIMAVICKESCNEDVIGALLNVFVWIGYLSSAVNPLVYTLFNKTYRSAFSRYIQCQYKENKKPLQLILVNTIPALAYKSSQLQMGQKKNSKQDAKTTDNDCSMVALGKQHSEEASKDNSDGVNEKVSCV
Chain of 5-HT2C receptor (P28335 33-458): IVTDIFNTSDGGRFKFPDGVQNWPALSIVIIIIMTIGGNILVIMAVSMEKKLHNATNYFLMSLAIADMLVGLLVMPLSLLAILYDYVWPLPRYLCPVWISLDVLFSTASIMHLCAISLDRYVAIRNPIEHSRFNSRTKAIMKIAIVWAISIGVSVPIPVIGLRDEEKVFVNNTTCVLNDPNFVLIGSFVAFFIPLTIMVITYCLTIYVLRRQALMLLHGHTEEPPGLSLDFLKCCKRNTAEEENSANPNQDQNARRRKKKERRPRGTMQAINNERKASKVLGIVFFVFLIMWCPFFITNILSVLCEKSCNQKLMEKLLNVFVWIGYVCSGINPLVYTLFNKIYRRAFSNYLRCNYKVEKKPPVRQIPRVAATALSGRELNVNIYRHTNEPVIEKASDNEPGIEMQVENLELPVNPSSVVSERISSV
Chain of 5-HT2B receptor (P41595 whole entry): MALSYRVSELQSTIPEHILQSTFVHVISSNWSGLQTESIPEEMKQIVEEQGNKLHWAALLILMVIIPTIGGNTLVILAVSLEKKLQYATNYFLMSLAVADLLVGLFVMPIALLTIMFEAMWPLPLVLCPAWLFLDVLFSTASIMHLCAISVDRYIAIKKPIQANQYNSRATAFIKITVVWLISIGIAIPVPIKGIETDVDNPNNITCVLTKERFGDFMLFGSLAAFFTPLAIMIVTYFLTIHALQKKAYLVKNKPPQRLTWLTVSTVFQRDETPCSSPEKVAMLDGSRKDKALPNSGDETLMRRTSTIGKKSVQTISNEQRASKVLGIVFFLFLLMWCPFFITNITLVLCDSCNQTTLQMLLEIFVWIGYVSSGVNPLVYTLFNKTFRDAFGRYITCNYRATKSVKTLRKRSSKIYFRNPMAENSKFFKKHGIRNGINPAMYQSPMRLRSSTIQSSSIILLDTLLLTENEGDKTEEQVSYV

Regarding `Cc1noc(C)c1-c1cc(NC(=O)C2(F)CC2)ccc1OCCN1CCCC1` [Compound 113, N-[3-(3,5-dimethylisoxazol-4-yl)-4-(2-pyrrolidin-1-ylethoxy)phenyl]-1-fluoro-cyclopropanecarboxamide], the results for the concentration for half-maximal inhibition (IC50) in experiment [1], in experiment [3] and in experiment [4] were 8.95 nM, ≥ 100000 nM and ≥ 100000 nM, respectively. For the same compound, the Ki in experiment [2] was found to be 2.66 nM.

Consider `Cc1noc(C)c1-c1cc(NC(=O)c2c(F)cnn2C)ccc1OCCN1CCCC1` [Compound 114, N-(3-(3,5-dimethylisoxazol-4-yl)-4-(2-(pyrrolidin-1-yl)ethoxy)phenyl)-4-fluoro-1-methyl-1H-pyrazole-5-carboxamide], for which the 50% inhibitory concentration (IC50) is 8.69 nM in experiment [1], ≥ 100000 nM in experiment [3] and ≥ 100000 nM in experiment [4]. For the same compound, the inhibitory constant (Ki) in experiment [2] was 2.6 nM.

For `Cc1noc(C)c1-c1cc(NC(=O)C2(F)CC2)ccc1OCCN1CCC1` [Compound 117, N-[4-[2-(azetidin-1-yl)ethoxy]-3-(3,5-dimethylisoxazol-4-yl)phenyl]-1-fluoro-cyclopropanecarboxamide], the 50% inhibitory concentration (IC50) in experiment [1] is 20.6 nM; in experiment [3], ≥ 100000 nM; in experiment [4] it was ≥ 100000 nM. Moreover, the inhibition constant (Ki) in experiment [2] was determined as 10.3 nM.

Take `Cc1ncsc1C(=O)Nc1ccc(OCCN2CCC2)c(-c2c(C)noc2C)c1` [Compound 119, N-(4-(2-(azetidin-1-yl)ethoxy)-3-(3,5-dimethylisoxazol-4-yl)phenyl)-4-methylthiazole-5-carboxamide]: the results for the IC50 in experiment [1], in experiment [3] and in experiment [4] were 13 nM, ≥ 100000 nM and ≥ 100000 nM, respectively. Besides, the inhibitory constant (Ki) in experiment [2] came out at 9.58 nM.

As for `Cc1noc(C)c1-c1cc(NC(=O)C2CC2)ccc1OCCN1CCC2(CCC(=O)O2)CC1` [Compound 141, N-(3-(3,5-dimethylisoxazol-4-yl)-4-(2-(2-oxo-1-oxa-8-azaspiro[4.5]decan-8-yl)ethoxy)phenyl)cyclopropanecarboxamide], the half-inhibitory concentration (IC50) in experiment [1] is 49.7 nM; in experiment [3], ≥ 100000 nM; in experiment [4], ≥ 100000 nM. For the same compound, the Ki in experiment [2] amounted to 9.47 nM.

`CO[C@H]1CCN(CCOc2ccc(NC(=O)C3CC3)cc2-c2c(C)noc2C)C1` [Compound 144, (S)—N-(3-(3,5-dimethylisoxazol-4-yl)-4-(2-(3-methoxypyrrolidin-1-yl)ethoxy)phenyl)cyclopropanecarboxamide]: the values for the half-maximal inhibitory concentration (IC50) in experiment [1], in experiment [3] and in experiment [4] were 85.5 nM, ≥ 100000 nM and ≥ 100000 nM, respectively. Also, the inhibition constant Ki in experiment [2] turned out to be 14.9 nM.

For `Cc1noc(C)c1-c1cc(NC(=O)C2CC2)ccc1OCCN1CCC(O)CC1` [Compound 146, N-(3-(3,5-dimethylisoxazol-4-yl)-4-(2-(4-hydroxypiperidin-1-yl)ethoxy)phenyl)cyclopropanecarboxamide], the IC50 is 15.7 nM in experiment [1], ≥ 100000 nM in experiment [3] and ≥ 100000 nM in experiment [4]. For the same compound, the Ki in experiment [2] is 5.08 nM.

For the compound `Cc1noc(C)c1-c1cc(NC(=O)C2(F)CC2)ccc1OC[C@H]1CCCCN1` [Compound 217, (R)—N-(3-(3,5-dimethylisoxazol-4-yl)-4-(piperidin-2-ylmethoxy)phenyl)-1-fluorocyclopropane-1-carboxamide], the IC50 is 5.19 nM in experiment [1] and ≥ 100000 nM in experiment [4]. The Ki in experiment [2] amounted to 1.21 nM.

For the compound `Cc1ncsc1CC(=O)Nc1ccc(OC[C@H]2CCCCN2)c(-c2c(C)noc2C)c1` [Compound 225, (R)—N-(3-(3,5-dimethylisoxazol-4-yl)-4-(piperidin-2-ylmethoxy)phenyl)-2-(4-methylthiazol-5-yl)acetamide], the 50% inhibitory concentration (IC50) is 19.7 nM in experiment [1] and ≥ 100000 nM in experiment [4]. For the same compound, the inhibition constant (Ki) in experiment [2] was found to be 3.18 nM.

With `Cc1noc(C)c1-c1cc(NC(=O)c2c(F)cnn2C)ccc1OC[C@H]1CCCCN1` [Compound 230, (R)—N-(3-(3,5-dimethylisoxazol-4-yl)-4-(piperidin-2-ylmethoxy)phenyl)-4-fluoro-1-methyl-1H-pyrazole-5-carboxamide], the 50% inhibitory concentration (IC50) in experiment [1] was 6.17 nM; in experiment [4], ≥ 100000 nM. In addition, the inhibition constant (Ki) in experiment [2] was 6.17 nM.
